{"source": "patent US20110160081A1", "about": "“FUNCTIONAL COMPLEMENTATION ASSAY FOR DEFINED GPCR OLIGOMERS” (priority 2008, published 2011)", "key": {"[1]": {"system": "endogenous purinergic receptors", "assay": "Aequorin assay, endogenous receptors in AEQ cells", "type": "cell-based", "text": "To enable isolation of the signaling of the D2R from endogenous G proteins, and to control each of the components of the signaling complex, Flp-In 1-Rex-293 cells were engineered to stably express aequorin (AEQ cells) (see Example 1). Aequorin produces luminescence in a calcium-dependent manner in the presence of the substrate coelenterazine (23, 24), and it has been used to create a sensitive luminescence readout for GPCR-mediated PLC activation (25). In these cells, endogenous muscarinic or purinergic receptors signaled robustly via endogenous Gq, resulting in strong agonist-induced (ACH and ATP, respectively) luminescence signals (FIG. 7A)."}, "[2]": {"system": "WT D2R coexpressed with D2/D4-Gqi5", "assay": "Aequorin functional complementation assay, WT D2R as protomer A with D2/D4-Gqi5 as protomer B", "type": "cell-based, human", "settings": "L745,870 1 μM; agonist quinpirole; n=9", "text": "(§1) The signals were further normalized according to Flag tagged D2R expression level. To normalize for different levels of surface expression levels of the Flag-D2R-Gqi5 mutant constructs, the Emax at each expression level (FIG. 12F) was plotted as a function of different levels of expression of Flag-tagged wt D2R-Gqi5, the expression of which was controlled by varying the time after tetracycline induction (FIG. 12A). The level of Myc-D2R remained essentially unchanged (FIG. 12B). The standard curve was fit to a 1 site rectangular hyperbola using nonlinear regression in GraphPad Prism 4.0 (GraphPad Software Inc., La Jolla, Calif.) (FIG. 12G). The luminescence response of the various Flag-D2R-Gqi5 constructs was normalized using this standard curve to account for the effects of different expression levels, with activation of 1 defined as that observed after 12 hours of tetracycline induction of WT D2R-Gqi5. The Flag detection was approximately 5-fold more sensitive than that of Myc; thus, the excess of Myc-tagged protomer A, which cannot signal on its own, ensures that normalization based on surface expression of the Flag-tagged Gqi5-fused protomer B accurately reflects the productive signaling entities, each of which must contain a protomer A and a protomer B."}, "[3]": {"molecular_target": "T1, SSTR5 coexpressed with D2R-Gqi5 (Homo sapiens, UniProt P14416+P35346)", "T1 construct": "signal peptide (N); expressed in transfected cells; host or cells: AEQ cells (Flp-in T-rex 293 with aequorin)", "type": "cell-based"}, "[4]": {"molecular_target": "T2, SSTR5 coexpressed with D114A-Gqi5 (Homo sapiens, UniProt P35346)", "T2 construct": "signal peptide (N); expressed in transfected cells; host or cells: AEQ cells (Flp-in T-rex 293 with aequorin)", "type": "cell-based"}, "[5]": {"molecular_target": "T3, D2R coexpressed with D2-Gqi5 (Homo sapiens, UniProt P14416)", "T3 construct": "signal peptide (N); expressed in transfected cells; host or cells: Flp-in T-rex 293 cells stably expressing aequorin", "assay": "Aequorin functional complementation assay, D2R coexpressed with D2R-Gqi5", "type": "cell-based", "settings": "pertussis toxin 100 ng/ml 16-24 hours", "text": "as §1, with “B. […]” for “B.”"}, "[6]": {"molecular_target": "T4, D2R coexpressed with free Gqi5 (Homo sapiens, UniProt P14416)", "T4 construct": "signal peptide (N); expressed in transfected cells; host or cells: Flp-in T-rex 293 cells stably expressing aequorin", "type": "cell-based", "settings": "pertussis toxin 100 ng/ml 16-24 hours"}}, "data": [{"compound": "Nc1ncnc2c1ncn2[C@@H]1O[C@H](COP(=O)(O)OP(=O)(O)OP(=O)(O)O)[C@@H](O)[C@H]1O", "note": "[ATP]", "values": [{"measurement": "agonist-induced luminescence signal via endogenous Gq", "setting": "[1]", "value": "strong"}]}, {"compound": "Cl.Cl.Cl.Clc1ccc(N2CCN(Cc3c[nH]c4ncccc34)CC2)cc1", "note": "[L745,870, 3-(4-[4-Chlorophenyl]piperazin-1-yl)-methyl-1H-pyrrolo[2,3-b]pyridine trihydrochloride]", "values": [{"measurement": "maximal activation, % of that observed for D2R coexpressed with WT D2R-Gqi5", "setting": "[2]", "value": "156.7±7.3", "unit": "%"}]}, {"compound": "CCN1CCCC1CNC(=O)c1cc(S(N)(=O)=O)ccc1OC", "note": "(centres unmarked) [sulpiride]", "values": [{"measurement": "enhancement of potency of somatostatin by sulpiride relative to quinpirole", "setting": "[3]; D2R inverse agonist sulpiride versus agonist quinpirole", "value": "about 6 fold"}, {"measurement": "effect on SSTR5 activation (luminescence readout)", "setting": "[3]; coadministration of 1 μM with somatostatin", "value": "enhanced"}, {"measurement": "shift in the SST curve", "setting": "[3]; in presence of compound, data not shown", "value": "full shift"}, {"measurement": "effect on SSTR5 activation (luminescence readout)", "setting": "[4]", "value": "without effect"}]}, {"compound": "pertussis toxin", "values": [{"measurement": "effect of pertussis toxin treatment on activation", "setting": "[5]", "value": "lack of effect"}, {"measurement": "effect of PTX on increase in luminescence", "setting": "[6]", "value": "unaffected"}]}]}
